Measurements: ChEMBL document CHEMBL1201862, “PubChem BioAssay data set” (2004)
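These data come from cells grown in 96-well plates and exposed to compound for 48 hours at five concentrations. GI50 = concentration required for 50% inhibition of growth.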 Active and inactive are the calls of the source. No stated cut-off is given here; in the data, active = GI50 up to about 1.1 µM and inactive = higher.

Legend:
Assay in all cases: NCI anticancer screen, dose series, 48 h
M14 = system: M14
XF498 = system: XF498
ACHN = system: ACHN
RXF 393 = system: RXF 393
SK-OV-3 = system: SK-OV-3
UACC-257 = system: UACC-257
DMS-114 = system: DMS-114
K562 = system: K562
KM12 = system: KM12
U-251 = system: U-251
UACC-62 = system: UACC-62
KM-20L2 = system: KM-20L2
A549 = system: A549
DMS-273 = system: DMS-273
UO-31 = system: UO-31
COLO 205 = system: COLO 205
SF-539 = system: SF-539
NCI-H23 = system: NCI-H23
HOP-18 = system: HOP-18
NCI-H460 = system: NCI-H460
LOX IMVI = system: LOX IMVI
OVCAR-3 = system: OVCAR-3
EKVX = system: EKVX
SNB-78 = system: SNB-78
Malme-3M = system: Malme-3M
HCT-15 = system: HCT-15
MOLT-4 = system: MOLT-4
SNB-19 = system: SNB-19
IGROV-1 = system: IGROV-1
SK-MEL-5 = system: SK-MEL-5
SN12C = system: SN12C
HOP-62 = system: HOP-62
M19-MEL = system: M19-MEL
HCC 2998 = system: HCC 2998
NCI-H226 = system: NCI-H226
RPMI-8226 = system: RPMI-8226
NCI-H522 = system: NCI-H522
CAKI-1 = system: CAKI-1
SF-268 = system: SF-268
RXF 631 = system: RXF 631
HCT-116 = system: HCT-116
SK-MEL-28 = system: SK-MEL-28
OVCAR-8 = system: OVCAR-8
HL-60 = system: HL-60
SW-620 = system: SW-620
DLD-1 = system: DLD-1
SNB-75 = system: SNB-75
TK-10 = system: TK-10
SF-295 = system: SF-295
HOP-92 = system: HOP-92
HT-29 = system: HT-29
A498 = system: A498
OVCAR-5 = system: OVCAR-5
OVCAR-4 = system: OVCAR-4
LXFL 529 = system: LXFL 529
786-0 = system: 786-0

O=C(Nc1ccccc1[N+](=O)[O-])c1ccccc1
GI50 (M14): > 100 µM (inactive)
GI50 (XF498): > 100 µM (inactive)
GI50 (ACHN): > 100 µM (inactive)
GI50 (RXF 393): 37.3 µM (inactive)
GI50 (SK-OV-3): > 100 µM (inactive)
GI50 (UACC-257): > 100 µM (inactive)
GI50 (DMS-114): 70.1 µM (inactive)
GI50 (K562): > 100 µM (inactive)
GI50 (KM12): 55.5 µM (inactive)
GI50 (U-251): > 100 µM (inactive)
GI50 (UACC-62): > 100 µM (inactive)
GI50 (KM-20L2): > 100 µM (inactive)
GI50 (A549): > 100 µM (inactive)
GI50 (DMS-273): > 100 µM (inactive)
GI50 (UO-31): 61.7 µM (inactive)
GI50 (COLO 205): > 100 µM (inactive)
GI50 (SF-539): > 100 µM (inactive)
GI50 (NCI-H23): > 100 µM (inactive)
GI50 (HOP-18): > 100 µM (inactive)
GI50 (NCI-H460): > 100 µM (inactive)
GI50 (LOX IMVI): 95.9 µM (inactive)
GI50 (OVCAR-3): > 100 µM (inactive)
GI50 (EKVX): 97.7 µM (inactive)
GI50 (SNB-78): > 100 µM (inactive)
GI50 (Malme-3M): > 100 µM (inactive)
GI50 (HCT-15): > 100 µM
GI50 (MOLT-4): 53 µM (inactive)
GI50 (SNB-19): > 100 µM (inactive)
GI50 (IGROV-1): > 100 µM (inactive)
GI50 (SK-MEL-5): > 100 µM (inactive)
GI50 (SN12C): > 100 µM (inactive)
GI50 (HOP-62): 67.5 µM (inactive)
GI50 (M19-MEL): > 100 µM (inactive)
GI50 (HCC 2998): > 100 µM (inactive)
GI50 (NCI-H226): 83.8 µM (inactive)
GI50 (RPMI-8226): 80.9 µM (inactive)
GI50 (NCI-H522): 56.9 µM (inactive)
GI50 (CAKI-1): > 100 µM (inactive)
GI50 (SF-268): > 100 µM (inactive)
GI50 (RXF 631): 64.1 µM (inactive)
GI50 (HCT-116): > 100 µM (inactive)
GI50 (SK-MEL-28): > 100 µM (inactive)
GI50 (OVCAR-8): > 100 µM (inactive)
GI50 (HL-60): > 100 µM (inactive)
GI50 (SW-620): > 100 µM (inactive)
GI50 (DLD-1): 72.3 µM (inactive)
GI50 (SNB-75): 65.3 µM (inactive)
GI50 (TK-10): > 100 µM (inactive)
GI50 (SF-295): > 100 µM (inactive)
GI50 (HOP-92): 65.9 µM (inactive)
GI50 (HT-29): > 100 µM (inactive)
GI50 (A498): > 100 µM (inactive)
GI50 (OVCAR-5): > 100 µM (inactive)
GI50 (OVCAR-4): 82.6 µM (inactive)
GI50 (LXFL 529): > 100 µM (inactive)
GI50 (786-0): > 100 µM (inactive)
